Test results published in article PMC8348101, “Personal Glucose Meter for α-Glucosidase Inhibitor Screening Based on the Hydrolysis of Maltose” (Molecules, 2021).

Each compound was assayed against T1, α-glucosidase (Aspergillus niger, UniProt P56526) (assay: personal glucose meter assay of maltose hydrolysis, single concentration […]).
T1 construct: gene aglA
T1 sequence (P56526 26-985): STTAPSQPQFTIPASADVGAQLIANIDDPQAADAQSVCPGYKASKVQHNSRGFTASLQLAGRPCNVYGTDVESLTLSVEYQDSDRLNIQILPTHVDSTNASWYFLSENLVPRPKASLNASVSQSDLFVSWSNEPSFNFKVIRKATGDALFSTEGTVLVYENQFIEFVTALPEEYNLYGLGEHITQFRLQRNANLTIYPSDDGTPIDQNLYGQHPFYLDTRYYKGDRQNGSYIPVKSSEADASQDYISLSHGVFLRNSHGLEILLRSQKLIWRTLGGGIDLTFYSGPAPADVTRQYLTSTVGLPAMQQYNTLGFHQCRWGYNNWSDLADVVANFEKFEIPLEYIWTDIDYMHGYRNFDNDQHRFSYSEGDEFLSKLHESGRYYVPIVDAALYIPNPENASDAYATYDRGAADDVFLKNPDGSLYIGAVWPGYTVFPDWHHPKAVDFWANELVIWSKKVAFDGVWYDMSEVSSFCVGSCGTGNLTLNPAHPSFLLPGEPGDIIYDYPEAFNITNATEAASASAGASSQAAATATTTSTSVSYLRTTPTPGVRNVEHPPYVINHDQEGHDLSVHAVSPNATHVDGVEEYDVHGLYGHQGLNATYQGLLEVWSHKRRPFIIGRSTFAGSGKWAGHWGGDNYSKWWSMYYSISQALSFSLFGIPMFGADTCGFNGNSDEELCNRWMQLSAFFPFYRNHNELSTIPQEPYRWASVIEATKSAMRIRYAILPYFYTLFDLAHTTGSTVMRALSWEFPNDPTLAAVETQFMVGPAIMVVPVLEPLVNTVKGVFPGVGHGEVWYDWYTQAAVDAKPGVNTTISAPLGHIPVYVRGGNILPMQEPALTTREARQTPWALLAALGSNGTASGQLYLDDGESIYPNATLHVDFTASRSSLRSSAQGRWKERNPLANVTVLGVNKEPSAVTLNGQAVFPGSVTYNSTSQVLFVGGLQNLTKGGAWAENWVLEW
Format: biochemical
Compound `OC[C@H]1O[C@@H](Oc2c(O)cc(O)cc2/C=C/c2ccc(O)cc2)[C@H](O)[C@@H](O)[C@@H]1O` [TSG, 2,3,5,4′-tetrahydroxy stilbene-2-O-β-D-glucoside] has an inhibition at 5000 µM of 27 ± 2%. With `O=C(/C=C/c1ccc(O)c2c1[C@H](C(=O)O)[C@@H](c1ccc(O)c(O)c1)O2)O[C@H](Cc1ccc(O)c(O)c1)C(=O)O` [lithospermic acid] the inhibition at 5000 µM was 52.5 ± 3%. `O=Cc1ccc(O)c(O)c1` [protocatechualdehyde] showed an inhibition at 5000 µM of 36.8 ± 2.8%.
